Biological target: T1, Recombinant human GR (Homo sapiens, UniProt P04150)
T1 construct: purchased Invitrogen P2816
T1 sequence (P04150 1-777): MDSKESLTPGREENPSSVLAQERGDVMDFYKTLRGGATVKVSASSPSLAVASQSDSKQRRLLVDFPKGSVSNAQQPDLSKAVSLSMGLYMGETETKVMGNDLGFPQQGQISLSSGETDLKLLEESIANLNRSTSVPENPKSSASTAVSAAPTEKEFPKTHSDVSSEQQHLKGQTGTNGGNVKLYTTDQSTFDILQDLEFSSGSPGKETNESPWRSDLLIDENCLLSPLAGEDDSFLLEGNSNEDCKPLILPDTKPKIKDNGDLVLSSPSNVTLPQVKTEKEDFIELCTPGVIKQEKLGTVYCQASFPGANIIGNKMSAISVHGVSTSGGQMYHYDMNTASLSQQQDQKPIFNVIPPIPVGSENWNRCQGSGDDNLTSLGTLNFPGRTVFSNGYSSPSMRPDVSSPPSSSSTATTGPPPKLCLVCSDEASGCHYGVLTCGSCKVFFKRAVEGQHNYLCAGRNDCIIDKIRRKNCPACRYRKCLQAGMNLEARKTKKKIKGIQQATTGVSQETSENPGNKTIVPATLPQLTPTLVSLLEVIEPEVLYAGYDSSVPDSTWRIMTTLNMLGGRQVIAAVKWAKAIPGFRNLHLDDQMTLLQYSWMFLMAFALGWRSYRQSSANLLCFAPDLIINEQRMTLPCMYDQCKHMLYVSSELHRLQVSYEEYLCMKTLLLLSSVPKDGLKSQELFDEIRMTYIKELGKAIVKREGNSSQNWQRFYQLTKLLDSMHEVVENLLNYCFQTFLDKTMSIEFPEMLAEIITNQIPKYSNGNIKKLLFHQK
Assay: GR competitor assay by fluorescence polarization (GR binding ratio)
Conditions: positive control 2 mM dexamethasone, a GR binding ratio of 100% or more is indicated by 100%
Experimental: 1. Evaluation Test for Binding Activity to Glucocorticoid Receptor (hereinafter referred to as “GR”)
In order to evaluate a binding activity to GR, a receptor competitor assay was carried out by a fluorescence polarization method. In the assay, a GR competitor assay kit (manufactured by Invitrogen, cat No. P2816) was used, and a procedure was carried out according to the protocol attached to the kit. Hereinafter, the specific method will be described.
GR screening buffer: A buffer containing 10 mM potassium phosphate (pH 7.4), 20 mM sodium molybdate (Na2MoO4), 0.1 mM ethylene diamine tetraacetic acid (EDTA), 5 mM dithiothreitol (DTT), 0.1 mM stabilizing peptide and 2% dimethylsulfoxide was prepared.
4×GS1 solution: Fluormone™ GS1, which is a fluorescent glucocorticoid ligand, was diluted with GR screening buffer, whereby a 4 nM solution was prepared.
4×GR solution: Recombinant human GR was diluted with GR screening buffer, whereby a 16 nM solution was prepared.
After a test compound was dissolved in dimethylsulfoxide, the resulting solution was diluted with GR screening buffer, whereby a 20 μM test compound solution was prepared.
1) The test compound solution was added in an amount of 25 μL or 10 μL into each well of a 96-well or 384-well plate, and then, 4×GS1 solution and 4×GR solution were added in an amount of 12.5 μL or 5 μL into each well, respectively.
2) The plate was incubated in a dark place at room temperature for 2 to 4 hours.
3) By using a multimode plate reader, Analyst™ HT (manufactured by LJL Biosystems), fluorescence polarization of each well was measured. As the blank, a well containing GR screening buffer in place of the test compound and 4×GS1 solution was used.
4) The same procedure as that in the above 1) to 3) was carried out except that GR screening buffer was used in place of the test compound solution, and the obtained result was taken as the negative control.
5) The same procedure as that in the above 1) to 3) was carried out except that 2 mM dexamethasone was used in place of the test compound solution, and the obtained result was taken as the positive control.
A GR binding ratio (%) was calculated from the following equation.
GR binding ratio (%)=100×[1−(fluorescence polarization of test compound solution−fluorescence polarization of positive control solution)/(fluorescence polarization of negative control solution−fluorescence polarization of positive control solution)]

| Structure (SMILES) | GR Binding ratio (%) |
| --- | --- |
| COc1ccc(C(=O)OCc2c(-c3ccc(F)cc3OC)ccc3c2C(C)=CC(C)(C)N3)cc1 [Compound 1-19, 6-(4-Fluoro-2-methoxyphenyl)-5-(4-methoxybenzoyloxymethyl)-2,2,4-trimethyl-1,2-dihydroquinoline] | ≥ 100% |
| COc1cc(F)ccc1-c1ccc2c(c1COC(=O)c1cccs1)C(C)=CC(C)(C)N2 [Compound 1-21, 6-(4-Fluoro-2-methoxyphenyl)-5-[(thiophene-2-yl)carbonyloxymethyl]-2,2,4-trimethyl-1,2-dihydroquinoline] | 82% |
| COc1cc(F)ccc1-c1ccc2c(c1COC(=O)c1ccccc1C)C(C)=CC(C)(C)N2 [Compound 1-46, 6-(4-Fluoro-2-methoxyphenyl)-5-(2-methylbenzoyloxymethyl)-2,2,4-trimethyl-1,2-dihydroquinoline] | ≥ 100% |
| COc1cc(F)ccc1-c1ccc2c(c1COc1cccc(C)c1)C(C)=CC(C)(C)N2 [Compound 3-21, 6-(4-Fluoro-2-methoxyphenyl)-5-(3-methylphenoxymethyl)-2,2,4-trimethyl-1,2-dihydroquinoline] | 97% |
| COc1cc(F)ccc1-c1ccc2c(c1COc1ccccc1C)C(C)=CC(C)(C)N2 [Compound 3-22, 6-(4-Fluoro-2-methoxyphenyl)-5-(2-methylphenoxymethyl)-2,2,4-trimethyl-1,2-dihydroquinoline] | 99% |
| CCc1ccccc1OCc1c(-c2ccc(F)cc2OC)ccc2c1C(C)=CC(C)(C)N2 [Compound 3-33, 5-(2-Ethylphenoxymethyl)-6-(4-fluoro-2-methoxyphenyl)-2,2,4-trimethyl-1,2-dihydroquinoline] | ≥ 100% |
| COc1cc(F)ccc1-c1ccc2c(c1COc1cc(C)cc(C)c1C)C(C)=CC(C)(C)N2 [Compound 3-44, 6-(4-Fluoro-2-methoxyphenyl)-5-(2,3,5-trimethylphenoxymethyl)-2,2,4-trimethyl-1,2-dihydroquinoline] | 98% |
| COc1cc(F)c(F)cc1-c1ccc2c(c1COc1ccccc1C)C(C)=CC(C)(C)N2 [Compound 3-45, 6-(4,5-Difluoro-2-methoxyphenyl)-5-(2-methylphenoxymethyl)-2,2,4-trimethyl-1,2-dihydroquinoline] | 98% |
| COc1cc(F)ccc1-c1ccc2c(c1COc1cc(F)ccc1C)C(C)=CC(C)(C)N2 [Compound 3-48, 6-(4-Fluoro-2-methoxyphenyl)-5-(5-fluoro-2-methylphenoxymethyl)-2,2,4-trimethyl-1,2-dihydroquinoline] | ≥ 100% |
| COc1cc(F)ccc1-c1ccc2c(c1COc1cc(Cl)ccc1C)C(C)=CC(C)(C)N2 [Compound 3-56, 6-(4-Fluoro-2-methoxyphenyl)-5-(5-chloro-2-methylphenoxymethyl)-2,2,4-trimethyl-1,2-dihydroquinoline] | 98% |
| COc1cc(F)c(F)cc1-c1ccc2c(c1COc1cc(F)ccc1C)C(C)=CC(C)(C)N2 [Compound 3-57, 6-(4,5-Difluoro-2-methoxyphenyl)-5-(5-fluoro-2-methylphenoxymethyl)-2,2,4-trimethyl-1,2-dihydroquinoline] | 98% |
| COc1cc(F)ccc1-c1ccc2c(c1COc1cc(C)ccc1C)C(C)=CC(C)(C)N2 [Compound 3-58, 5-(2,5-Dimethylphenoxymethyl)-6-(4-fluoro-2-methoxyphenyl)-2,2,4-trimethyl-1,2-dihydroquinoline] | ≥ 100% |
| COc1ccc(C)cc1OCc1c(-c2ccc(F)cc2OC)ccc2c1C(C)=CC(C)(C)N2 [Compound 3-59, 6-(4-Fluoro-2-methoxyphenyl)-5-(2-methoxy-5-methylphenoxymethyl)-2,2,4-trimethyl-1,2-dihydroquinoline] | ≥ 100% |
| COc1ccc([N+](=O)[O-])cc1OCc1c(-c2ccc(F)cc2OC)ccc2c1C(C)=CC(C)(C)N2 [Compound 3-61, 6-(4-Fluoro-2-methoxyphenyl)-5-(2-methoxy-5-nitrophenoxymethyl)-2,2,4-trimethyl-1,2-dihydroquinoline] | ≥ 100% |
| C/C=C/c1ccccc1OCc1c(-c2ccc(F)cc2OC)ccc2c1C(C)=CC(C)(C)N2 [Compound 3-62, 6-(4-Fluoro-2-methoxyphenyl)-5-[2-(1-propenyl)phenoxymethyl]-2,2,4-trimethyl-1,2-dihydroquinoline] | ≥ 100% |
| COc1ccc(F)cc1OCc1c(-c2ccc(F)cc2OC)ccc2c1C(C)=CC(C)(C)N2 [Compound 3-67, 5-(5-Fluoro-2-methoxyphenoxymethyl)-6-(4-fluoro-2-methoxyphenyl)-2,2,4-trimethyl-1,2-dihydroquinoline] | ≥ 100% |
| COc1cc(F)ccc1-c1ccc2c(c1COc1ccccc1CCO)C(C)=CC(C)(C)N2 [Compound 3-68, 6-(4-Fluoro-2-methoxyphenyl)-5-[2(2-hydroxyethyl)phenoxymethyl)-2,2,4-trimethyl-1,2-dihydroquinoline] | ≥ 100% |
| COc1cc(F)ccc1-c1ccc2c(c1COc1ccccc1C(C)C)C(C)=CC(C)(C)N2 [Compound 3-69, 5-(2-Isopropylphenoxymethyl)-6-(4-fluoro-2-methoxyphenyl)-2,2,4-trimethyl-1,2-dihydroquinoline] | ≥ 100% |
| COc1cc(F)ccc1-c1ccc2c(c1COc1cc([N+](=O)[O-])ccc1C)C(C)=CC(C)(C)N2 [Compound 3-72, 6-(4-Fluoro-2-methoxyphenyl)-5-(2-methyl-5-nitrophenoxymethyl)-2,2,4-trimethyl-1,2-dihydroquinoline] | ≥ 100% |
| C=CCc1ccccc1OCc1c(-c2ccc(F)cc2OC)ccc2c1C(C)=CC(C)(C)N2 [Compound 3-74, 6-(4-Fluoro-2-methoxyphenyl)-5-(2-allylphenoxymethyl)-2,2,4-trimethyl-1,2-dihydroquinoline] | ≥ 100% |
| COc1cc(F)ccc1-c1ccc2c(c1COc1cc(Cl)ccc1Cl)C(C)=CC(C)(C)N2 [Compound 3-85, 5-(2,5-Diclorophenoxymethyl)-6-(4-fluoro-2-methoxyphenyl)-2,2,4-trimethyl-1,2-dihydroquinoline] | 95% |
| COc1cc(F)ccc1-c1ccc2c(c1COc1cc([N+](=O)[O-])ccc1C#N)C(C)=CC(C)(C)N2 [Compound 3-91, 5-(2-Cyano-5-nitrophenoxymethyl)-6-(4-fluoro-2-methoxyphenyl)-2,2,4-trimethyl-1,2-dihydraquinoline] | ≥ 100% |
| COc1cc(F)ccc1-c1ccc2c(c1COc1cc(C=O)ccc1C)C(C)=CC(C)(C)N2 [Compound 3-94, 6-(4-Fluoro-2-methoxyphenyl)-5-(5-formyl-2-methylphenoxymethyl)-2,2,4-trimethyl-1,2-dihydroquinoline] | ≥ 100% |
| COc1ccc(Cl)cc1-c1ccc2c(c1COc1ccccc1CCO)C(C)=CC(C)(C)N2 [Compound 3-98, 6-(5-Chloro-2-methoxyphenyl)-5-[2-(2-Hydroxyethyl)phenoxymethyl]-2,2,4-trimethyl-1,2-dihydroquinoline] | ≥ 100% |
| COc1ccc(F)cc1-c1ccc2c(c1COc1ccccc1CCO)C(C)=CC(C)(C)N2 [Compound 3-99, 6-(5-Fluoro-2-methoxyphenyl)-5-[2-(2-hydroxyethyl)phenoxymethyl]-2,2,4-trimethyl-1,2-dihydroquinoline] | ≥ 100% |

From US8017775B2, “1-2-dihydroquinoline derivative having glucocorticoid receptor binding activity” (Santen Pharmaceutical Co., Ltd., priority 2005, dated 2011)
